Experimental data: patent US20060205714A1, “Method of synthesis and isolation of solid N-desmethylclozapine and crystalline forms thereof” (priority 2004, published 2006)

What was measured:
[1] = Storage stability of the crystal forms (humidity, temperature, dry nitrogen); type: physicochemical; details: for conversion to hydrated or other crystalline forms on storage / stability under humid atmosphere / high relative humidity: stored at high, such as 75% or 90%, relative humidity in air at elevated temperature
[2] = Solubility in solvents; type: physicochemical
[3] = Water solubility of crystal forms; type: physicochemical
[4] = tested on: psychosis and other neuropsychiatric disorders; details: in vivo; cited from earlier work
[5] = tested on: Alzheimer's Disease patients; details: cited from earlier work
[6] = tested on: schizophrenics; details: cited from earlier work

Clc1ccc2c(c1)N=C(N1CCNCC1)c1ccccc1N2 [Form D, 8-chloro-11-(1-piperazinyl)-5H-dibenzo[b,e]-[1,4]diazepin]
time to formation of Form B on contact with humidity ([1]; contacted with humidity): within hours
stability under exclusion of humidity ([1]; exclusion of humidity, ambient temperature): stable
solubility in solvents [2]: satisfying solubility in solvents

Clc1ccc2c(c1)N=C(N1CCNCC1)c1ccccc1N2 [8-chloro-11-(1-piperazinyl)-5H-dibenzo[b,e]-[1,4]diazepin]
stability of mixtures of crystal forms A and B [1]: very stable

Clc1ccc2c(c1)N=C(N1CCNCC1)c1ccccc1N2 [Form A, 8-chloro-11-(1-piperazinyl)-5H-dibenzo[b,e]-[1,4]diazepin]
physical and chemical stability ([1]; form obtained at ambient temperatures): excellent physical and chemical stability properties
conversion to hydrated or other crystalline forms on storage [1]: does not convert to the hydrated forms or other crystalline forms
stability under humid atmosphere / high relative humidity [1]: very stable under humid atmosphere
water solubility [3]: better water solubility than crystal form B

Clc1ccc2c(c1)N=C(N1CCNCC1)c1ccccc1N2 [NDMC, 8-chloro-11-(1-piperazinyl)-5H-dibenzo[b,e]-[1,4]diazepin]
effectiveness in the treatment of psychosis and other neuropsychiatric disorders [4]: effective in the treatment of psychosis and other neuropsychiatric disorders

CCCCCCOc1nsnc1C1=CCCN(C)C1 [Xanomeline]
efficacy in controlling psychosis and related behavioral disturbances [5]: efficacy in controlling psychosis and related behavioral disturbances
adverse motoric effects ([6]; initial clinical studies in schizophrenics): did not induce adverse motoric effects
efficacy in treating schizophrenia ([6]; schizophrenia): efficacious in treating schizophrenia
efficacy against positive and negative symptoms ([6]; schizophrenics): efficacy against both positive and negative symptoms

Clc1ccc2c(c1)N=C(N1CCNCC1)c1ccccc1N2 [Form B, 8-chloro-11-(1-piperazinyl)-5H-dibenzo[b,e]-[1,4]diazepin]
stability at elevated temperatures or under dry nitrogen ([1]; elevated temperatures or dry nitrogen, loses its water and is transformed into Form D): unstable
stability under normal conditions ([1]; normal conditions, ambient temperatures): very stable
conversion to hydrated or other crystalline forms on storage [1]: No conversion to other crystalline forms or hydrates was observed
stability under humid atmosphere / high relative humidity [1]: very stable hydrate
water solubility [3]: specially water soluble
